Reference: patent US20240229101A1, “METHOD FOR DETECTING INTRACELLULAR ACTIVITY OF CYP ENZYMES” (NATIONAL INSTITUTE OF ADVANCED INDUSTRIAL SCIENCE AND …, priority 2021, published 2024)

Columns and labels:
[1] = system: CYP3A4, CYP1A2, CYP2B6, and CYP2C9; assay: Induction of gene expression of CYP enzymes by inducing agents; assay type: cell-based, human; settings: confirmed by the inventors
CYP enzyme group = assay: Raman observation of HepaRG hepatocytes, signal of oxidized CYP enzyme group (1370, 1636 cm^-1); assay type: cell-based, human
Source text: (§1) A Raman image of the cell group cultured using the above-mentioned method (1) or (2) was constructed by quantitatively measuring the Raman signal using Raman spectroscopy. Here, the “observation” in the present specification includes both detecting a Raman scattering signal of a cell group and acquiring and observing a Raman image of a cell group. […] Details are explained in each Example.
The culture medium of the cultured cell group was removed, and the cell group was washed twice with PBS. An observation solution (Live Cell Imaging Solution (A14291DJ, Thermo Fisher Scientific)) was added to the washed cell group. The thus-treated cell group was subjected to Raman observation using the Raman microscope (Non Patent Literature 3) described using FIG. 1 (FIG. 6, FIG. 9 to 11, FIG. 13 to FIG. 21, FIG. 23 to FIG. 26).
A 40× water immersion objective lens (CFI Apochromat Lambda S 40XC WI) equipped in a Raman microscope was used to excite the Raman scattered light of the cell group and to detect the Raman scattering signal. The excitation light of the Raman scattered light of the cell group was irradiated by condensing a laser beam with a wavelength of 532 nm into a straight line with a predetermined length (hereinafter referred to as a line) using the water immersion objective lens.
(§2) The flow of detection of Raman scattered light of a cell group that was generated by excitation with excitation light is explained. […] The Raman scattering signal imaged on the slit is then separated by diffraction grating inside the spectroscope and detected by a cooling-type CCD image sensor (PIXIS 400B, Princeton Instruments) used as a photodetector. Raman scattering signals scattered from everywhere on the condensed line can be measured simultaneously and independently by different pixels on the CCD. […] Respective Raman signals were simultaneously detected in an about 133.3 μm region on the direction of the condensed line.

CYP3A4 = biological target: T1, CYP3A4 (Homo sapiens, UniProt P08684); assay: CYP3A4 activity in cell group by luminescence method (P450-Glo, Luciferin-IPA); assay type: cell-based; settings: HepaRG pre-induced with 2% DMSO, 2 ng/ml, 48 hr, vs control (FIG. 18)
T1 construct: endogenous in cells; host or cells: HepaRG cells (human liver tumor-derived; BIOPREDIC International)
T1 sequence (P08684 whole entry): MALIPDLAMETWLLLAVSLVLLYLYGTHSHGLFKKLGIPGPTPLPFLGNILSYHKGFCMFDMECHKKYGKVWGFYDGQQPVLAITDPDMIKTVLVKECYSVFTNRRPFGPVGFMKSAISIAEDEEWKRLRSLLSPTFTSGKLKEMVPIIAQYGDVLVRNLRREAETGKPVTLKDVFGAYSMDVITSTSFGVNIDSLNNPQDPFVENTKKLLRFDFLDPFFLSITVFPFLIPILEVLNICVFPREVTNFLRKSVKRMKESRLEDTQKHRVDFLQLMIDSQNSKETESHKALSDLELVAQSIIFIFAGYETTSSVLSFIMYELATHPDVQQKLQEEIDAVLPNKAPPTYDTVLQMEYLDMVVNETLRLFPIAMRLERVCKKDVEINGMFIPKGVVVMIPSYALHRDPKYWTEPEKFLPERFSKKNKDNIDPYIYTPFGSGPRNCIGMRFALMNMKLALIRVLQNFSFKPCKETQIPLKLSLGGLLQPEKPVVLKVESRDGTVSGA
Method: In order to confirm the enzyme activity of CYP3A4, which is particularly expressed in liver cells among the CYP enzymes in the cell group subjected to Raman observation, a test using a luminescence method (hereinafter a luminescence test) was performed in parallel with the Raman observation. The cell is group used in the luminescence test was a cell group separated from the cultured cells used in the below-mentioned Raman observation in (5). That is, the cell group cultured under the same conditions and at the same time as the cultured cells used in Raman observation was used. CYP luminescence test was performed using a commercially available luminescence assay kit (P450-Glo-CYP3A4-Assay-and-Screening-System) according to the provided protocol.
When the Luciferin-IPA substrate is converted to luciferin by CYP3A4, it becomes a substrate for luciferase, producing luminescence proportional to the activity of CYP3A4. […] Luciferase (50 μl) was added dropwise to the dispensed substrate-containing medium, and luminescence was caused using the luciferin-luciferase reaction. Luminescence was detected using a micro-plate reader (Synergy HTX, BioTek). The CYP3A4 activity detected by the present luminescence method is shown in FIG. 7, FIG. 14, FIG. 16, FIG. 18, FIG. 20, and FIG. 22.

[2] = system: reduced heme b, mainly reduced cytochrome b5; assay: Raman observation of HepaRG hepatocytes, reduced heme b signal (675 cm^-1); assay type: cell-based, human; settings: HepaRG induced with 4 μM Rifampicin, inhibitor 10 μM for 5 min (FIG. 24)
Source text: as §1
The culture medium of the cultured cell group was removed, and the cell group was washed twice with PBS. An observation solution (Live Cell Imaging Solution (A14291DJ, Thermo Fisher Scientific)) was added to the washed cell group. […]
as §2

## NC(=O)N1c2ccccc2C=Cc2ccccc21 [Carbamazepine]
[1]
  gene expression of at least one of CYP3A4, CYP1A2, CYP2B6, CYP2C9: induce gene expression

## Interleukin-6 [IL-6]
CYP enzyme group; HepaRG pre-induced with 2% DMSO, 2 ng/ml, 48 hr, vs control (FIGS. 18, 19)
  CYP activity detected using Raman signals (1636 cm^-1) after suppression: downregulation
CYP3A4
  activity of CYP3A4 (luminescence test) after suppression: decreases

## CC[C@]1(C)C[C@@H](OC(=O)CSc2nnc(N)[nH]2)[C@]2(C)[C@H](C)CC[C@]3(CCC(=O)[C@H]32)[C@@H](C)[C@@H]1O [Azamulin]
[2]
  Raman signal with a wavenumber of 675 cm^-1 after inhibition: did not increase
CYP enzyme group; HepaRG induced with 4 μM Rifampicin, inhibitor 10 μM for 5 min (FIG. 23)
  Raman signal at a wavenumber of 1636 cm^-1 after inhibition: reduces
CYP enzyme group; HepaRG induced with 4 μM Rifampicin, inhibitor 10 μM for 5 min, vs not administered, statistically significant (FIG. 23)
  median value of per-cell Raman signal at 1636 cm^-1 after inhibition: decreased

## O=C1NC(=O)C(c2ccccc2)(c2ccccc2)N1 [Phenytoin]
[1]
  gene expression of at least one of CYP3A4, CYP1A2, CYP2B6, CYP2C9: induce gene expression
